Test results published in US20180087079A1, “METHODS OF USING CELL-CYCLE INHIBITORS TO MODULATE ONE OR MORE PROPERTIES OF A CELL CULTURE” (AMGEN INC., priority 2013, published 2018).

Tested on: transfected CHO cells expressing recombinant human monoclonal antibody (cell line 1)
Experiment: 24-deep well culture, cell line 1: VCD, viability, titer, qP
Format: cell-based, Chinese hamster
Conditions: for Titer / VCD / Viability / qP: Cell Line 1
Method: Transfected CHO cells expressing a recombinant human monoclonal antibody (mAb) are cultured in 24-deep well plates with seeding density at 1×10^7/mL for five days. At certain time periods, samples of the cultures are taken and evaluated for viable cell density (VCD; expressed in 10^6 cells/mL); percent viability (as determined by trypan blue exclusion); titer of recombinant protein (expressed in grams of protein per liter of culture, or g/L, as determined by Protein A affinity HPLC); qP, or specific productivity (expressed in picograms of recombinant protein per cell per day, or pg/c/d), the presence or absence of high molecular weight substances (usually an indicator of protein aggregation; expressed as % of the total protein); and the relative percentage of Mannose 5, a major intermediate glyco-form that attaches to N297 of the mAb. N-linked glycosylation has an impact on the tertiary structure of the antibody and may affect Fc mediated antibody effector functions. The majority of the human Fc glycans are complex biantennary structures with galactose as the prevalent terminal sugar. Immature glyco-forms, such as high-mannose glycol-forms (Man5-9), are of concern due to potential higher plasma clearance rate (as compared to the clearance rate of complex glycan linked mAbs).
Compounds are further evaluated essentially as described in Example 2 herein. Briefly, transfected CHO cells expressing recombinant human monoclonal antibody (mAb; two different cell lines expressing two different mAb, referred to as cell line 1 and cell line 2) are cultured in 24-deep well plates in the presence or absence of the compounds. At specified time points, samples of the cultures are taken and evaluated for viable cell density (VCD; expressed in 10^6 cells/mL); percent viability (as determined by any method known in the art); titer of recombinant protein (expressed in grams of protein per liter of culture, or g/L, as determined by Protein A affinity HPLC); qP, or specific productivity (expressed in picograms of recombinant protein per cell per day, or pg/c/d). Additional parameters measure include the presence or absence of high molecular weight substances (usually an indicator of protein aggregation; expressed as % of the total protein); and the relative percentage of Mannose 5. For comparison purposes, Compounds A and B, which had been previously tested, were tested again.

OC1CCN(c2ccc(Nc3ncc4c5ccncc5n(C5CCCC5)c4n3)nn2)C1 (stereo not shown) [Compound G, 1-(6-((9-cyclopentyl-9H-pyrido[4′,3′:4,5]pyrrolo[2,3-d]pyrimidin-2-yl)amino)pyridazin-3-yl)pyrrolidin-3-ol]
Titer (5 microM, D 1): 0.48 g/L | VCD (5 microM, D 1): 11.74 e6/mL | Viability (5 microM, D 1): 95.55% | qP (5 microM, D 1): 40.59 pg/c/d | Titer (5 microM, D 2): 0.66 g/L | VCD (5 microM, D 2): 10.58 e6/mL | Viability (5 microM, D 2): 88.10% | qP (5 microM, D 2): 62.69 pg/c/d | Titer (5 microM, D 3): 0.96 g/L | VCD (5 microM, D 3): 11.02 e6/mL | Viability (5 microM, D 3): 83.82% | qP (5 microM, D 3): 86.81 pg/c/d | Titer (5 microM, D 4): 0.98 g/L | VCD (5 microM, D 4): 13.45 e6/mL | Viability (5 microM, D 4): 82.62% | qP (5 microM, D 4): 72.60 pg/c/d | Titer (10 microM, D 1): 0.47 g/L | VCD (10 microM, D 1): 11.65 e6/mL | Viability (10 microM, D 1): 95.31% | qP (10 microM, D 1): 40.64 pg/c/d | Titer (10 microM, D 2): 0.80 g/L | VCD (10 microM, D 2): 9.95 e6/mL | Viability (10 microM, D 2): 85.90% | qP (10 microM, D 2): 80.10 pg/c/d | Titer (10 microM, D 3): 0.94 g/L | VCD (10 microM, D 3): 10.48 e6/mL | Viability (10 microM, D 3): 81.90% | qP (10 microM, D 3): 89.39 pg/c/d | Titer (10 microM, D 4): 1.08 g/L | VCD (10 microM, D 4): 13.58 e6/mL | Viability (10 microM, D 4): 79.61% | qP (10 microM, D 4): 79.79 pg/c/d | effect on viability (summary of Table 2): minimal effects on viability | growth arrest (summary of Table 2): reasonably sustained growth arrest

CN(C)C1CCN(c2ccc(Nc3ncc4c(n3)C3(C=CC(C)(C)CC3)c3cnccc3-4)nn2)CC1 (stereo not shown) [Compound H, N-(6-(4-(dimethylamino)piperidin-1-yl)pyridazin-3-yl)-4,4-dimethylspiro[cyclohex[2]ene-1,9′-pyrido[4′,3′:3,4]cyclopenta[1,2-d]pyrimidin]-2′-amine]
Titer (10 microM, D 1): 0.47 g/L | VCD (10 microM, D 1): 11.48 e6/mL | Viability (10 microM, D 1): 95.80% | qP (10 microM, D 1): 41.24 pg/c/d | Titer (10 microM, D 2): 0.69 g/L | VCD (10 microM, D 2): 12.58 e6/mL | Viability (10 microM, D 2): 89.83% | qP (10 microM, D 2): 55.12 pg/c/d | Titer (10 microM, D 3): 0.94 g/L | VCD (10 microM, D 3): 13.36 e6/mL | Viability (10 microM, D 3): 87.77% | qP (10 microM, D 3): 70.60 pg/c/d | Titer (10 microM, D 4): 0.92 g/L | VCD (10 microM, D 4): 16.49 e6/mL | Viability (10 microM, D 4): 86.93% | qP (10 microM, D 4): 56.01 pg/c/d | Titer (20 microM, D 1): 0.47 g/L | VCD (20 microM, D 1): 10.69 e6/mL | Viability (20 microM, D 1): 95.60% | qP (20 microM, D 1): 44.27 pg/c/d | Titer (20 microM, D 2): 0.68 g/L | VCD (20 microM, D 2): 11.08 e6/mL | Viability (20 microM, D 2): 87.70% | qP (20 microM, D 2): 61.66 pg/c/d | Titer (20 microM, D 3): 0.92 g/L | VCD (20 microM, D 3): 10.91 e6/mL | Viability (20 microM, D 3): 82.95% | qP (20 microM, D 3): 83.98 pg/c/d | Titer (20 microM, D 4): 0.97 g/L | VCD (20 microM, D 4): 12.99 e6/mL | Viability (20 microM, D 4): 81.36% | qP (20 microM, D 4): 74.65 pg/c/d

Fc1ccc(-n2c3cnccc3c3cnc(Nc4ccc(N5CCNCC5)cn4)nc32)c(F)c1 [Compound I, 9-(2,4-difluorophenyl)-N-(5-(piperazin-1-yl)pyridin-2-yl)-9H-pyrido[4′,3′:4,5]pyrrolo[2,3-d]pyrimidin-2-amine]
Titer (0.625 microM, D 1): 0.46 g/L | VCD (0.625 microM, D 1): 11.17 e6/mL | Viability (0.625 microM, D 1): 95.26% | qP (0.625 microM, D 1): 41.50 pg/c/d | Titer (0.625 microM, D 2): 0.66 g/L | VCD (0.625 microM, D 2): 11.98 e6/mL | Viability (0.625 microM, D 2): 89.90% | qP (0.625 microM, D 2): 55.10 pg/c/d | Titer (0.625 microM, D 3): 0.89 g/L | VCD (0.625 microM, D 3): 12.81 e6/mL | Viability (0.625 microM, D 3): 85.53% | qP (0.625 microM, D 3): 69.73 pg/c/d | Titer (0.625 microM, D 4): 1.07 g/L | VCD (0.625 microM, D 4): 16.91 e6/mL | Viability (0.625 microM, D 4): 85.47% | qP (0.625 microM, D 4): 63.09 pg/c/d | Titer (1.25 microM, D 1): 0.46 g/L | VCD (1.25 microM, D 1): 10.89 e6/mL | Viability (1.25 microM, D 1): 94.78% | qP (1.25 microM, D 1): 42.55 pg/c/d | Titer (1.25 microM, D 2): 0.66 g/L | VCD (1.25 microM, D 2): 11.16 e6/mL | Viability (1.25 microM, D 2): 88.73% | qP (1.25 microM, D 2): 58.82 pg/c/d | Titer (1.25 microM, D 3): 0.89 g/L | VCD (1.25 microM, D 3): 12.25 e6/mL | Viability (1.25 microM, D 3): 85.80% | qP (1.25 microM, D 3): 72.68 pg/c/d | Titer (1.25 microM, D 4): 1.06 g/L | VCD (1.25 microM, D 4): 15.33 e6/mL | Viability (1.25 microM, D 4): 84.19% | qP (1.25 microM, D 4): 69.35 pg/c/d

CC1(C)CN(c2ccc(Nc3ncc4c5ccncc5n(-c5ccc(F)cc5F)c4n3)nc2)CCN1 [Compound J, 9-(2,4-difluorophenyl)-N-(5-(3,3-dimethylpiperazin-1-yl)pyridin-2-yl)-9H-pyrido[4′,3′:4,5]pyrrolo[2,3-d]pyrimidin-2-amine]
Titer (0.625 microM, D 1): 0.45 g/L | VCD (0.625 microM, D 1): 11.40 e6/mL | Viability (0.625 microM, D 1): 94.94% | qP (0.625 microM, D 1): 39.77 pg/c/d | Titer (0.625 microM, D 2): 0.68 g/L | VCD (0.625 microM, D 2): 14.02 e6/mL | Viability (0.625 microM, D 2): 91.87% | qP (0.625 microM, D 2): 48.50 pg/c/d | Titer (0.625 microM, D 3): 0.88 g/L | VCD (0.625 microM, D 3): 16.48 e6/mL | Viability (0.625 microM, D 3): 90.31% | qP (0.625 microM, D 3): 53.61 pg/c/d | Titer (0.625 microM, D 4): 0.99 g/L | VCD (0.625 microM, D 4): 19.37 e6/mL | Viability (0.625 microM, D 4): 89.98% | qP (0.625 microM, D 4): 51.10 pg/c/d | Titer (1.25 microM, D 1): 0.44 g/L | VCD (1.25 microM, D 1): 11.54 e6/mL | Viability (1.25 microM, D 1): 94.24% | qP (1.25 microM, D 1): 38.41 pg/c/d | Titer (1.25 microM, D 2): 0.64 g/L | VCD (1.25 microM, D 2): 11.25 e6/mL | Viability (1.25 microM, D 2): 87.53% | qP (1.25 microM, D 2): 57.19 pg/c/d | Titer (1.25 microM, D 3): 0.86 g/L | VCD (1.25 microM, D 3): 14.06 e6/mL | Viability (1.25 microM, D 3): 84.29% | qP (1.25 microM, D 3): 61.40 pg/c/d | Titer (1.25 microM, D 4): 1.08 g/L | VCD (1.25 microM, D 4): 17.54 e6/mL | Viability (1.25 microM, D 4): 84.81% | qP (1.25 microM, D 4): 61.77 pg/c/d
